In patent US7202235B2, “Tetracycline compounds for treatment of cryptosporidium parvum related disorders” (Trustees of Tufts College, priority 2000, dated 2007):

Test system: Cryptosporidium parvum
Assay: Assay for the ability of tetracycline compounds to control Cryptosporidium parvum infection in vitro (indirect immunofluorescence parasite count)
Format: cell-based
Conditions: C. parvum GCH1 oocysts in MDCK/MDBK cell monolayers, 48 hour incubation, IF parasite count, class by concentration giving 70% inhibition
Protocol: This assay is designed to test the ability of a tetracycline compound to control Cryptosporidium parvum infection in vitro. […] MDCK cells were grown in 96-well microtiter plastic plates, and were seeded with approximately 5×10^4 cells per well, using DMEM as the growth/maintenance medium with 10% FCS. Plates were normally grown to confluence 2–3 days after having been seeded with bleached, less than four week-old, C. parvum oocysts. The C. parvum isolate used most often was the human-derived, calf-propagated GCH1 (Tzipori, Clin. Diagn. Lab. Immunol. (1994) 1:450; Tzipori, J. Infect. Dis. (1995) 172:1160). The DMEM medium was also added to the negative control wells. The tetracycline compounds and the oocysts were added to the wells concurrently. The cells were subsequently monitored twice daily and any apparent morphologic changes were recorded. The monolayers were fixed with methanol after 48 hour incubation at 37° C. in 8% CO2. […] The tetracycline compounds were used at various concentrations (0.1–2000 μg/mL) and were dissolved directly into the culture medium. A conventional indirect immunofluorecensce (IF) assay was used to detect and enumerate parasite forms after 48-hour incubation. For the purposes of this assay, a polyclonal rabbit anti-sporozoite antibody was produced. […] The secondary antibody, a fluoroscein-conjugated goat anti-rabbit IgG, was used at a concentration of 1:100, according the manufacturer's instructions. The primary antibody was added after fixation for thirty minutes and after vigorous washing, the secondary antibody was incubated for another thirty minutes. The dried microtiter plate was viewed with an inverted microscope (x10 mag.), under ultraviolet light. For parasite counts, a semi-automated video imaging MCID system was used to facilitate the enumeration and analysis of the parasite data. In Table 1, good inhibition of C. parvum is indicated by ‘*’ (e.g., 70% inhibition at concentrations above 10 μg/ml and above) and very good inhibition of C. parvum is indicated by ‘**’ (e.g., 70% inhibition at concentrations below 10 μg/ml).

SMILES	IC70
C[C@H]1c2cccc(O)c2C(=O)C2=C(O)[C@]3(O)C(=O)C(C(N)=O)=C(O)[C@@H](N(C)C)C3[C@@H](O)C21 (some centres unmarked)	≥ 10 µg/mL
C[C@H]1c2ccc(C(C)(C)C)c(O)c2C(=O)C2=C(O)[C@]3(O)C(=O)C(C(N)=O)=C(O)[C@@H](N(C)C)C3[C@@H](O)C21 (some centres unmarked)	< 10 µg/mL
CN(C)[C@@H]1C(O)=C(C(N)=O)C(=O)[C@@]2(O)C(O)=C3C(=O)c4c(O)cccc4[C@H](CSC4CCCC4)C3[C@H](O)C12 (some centres unmarked)	< 10 µg/mL
CCC(=O)O[C@H]1C2C(=C(O)[C@]3(O)C(=O)C(C(N)=O)=C(O)[C@@H](N(C)C)C13)C(=O)c1c(ccc(C(C)(C)C)c1O)[C@@H]2C (some centres unmarked)	≥ 10 µg/mL
CCC(=O)O[C@H]1C2C(=C(O)[C@]3(O)C(=O)C(C(N)=O)=C(O)[C@@H](N(C)C)C13)C(=O)c1c(O)cccc1[C@@H]2CSC1CCCC1 (some centres unmarked)	< 10 µg/mL
CN(C)[C@@H]1C(O)=C(C(N)=O)C(=O)[C@@]2(O)C(O)=C3C(=O)c4c(O)cccc4SC3[C@H](O)C12 (some centres unmarked)	≥ 10 µg/mL
C[C@H]1c2ccc(C3=CCCC3)c(O)c2C(=O)C2=C(O)[C@]3(O)C(=O)C(C(N)=O)=C(O)[C@@H](N(C)C)C3[C@@H](O)C21 (some centres unmarked)	< 10 µg/mL
CN(C)c1cc(C#CC2=CCCCC2)c(O)c2c1CC1CC3[C@H](N(C)C)C(O)=C(C(N)=O)C(=O)[C@@]3(O)C(O)=C1C2=O (some centres unmarked)	< 10 µg/mL
